According to patent US20030220521A1, “Renal-selective prodrugs for control of renal sympathetic nerve activity in the treatment of hypertension” (G.D. Searle & Co., priority 1989, published 2003):

Experiments:
Male mongrel dogs = assay: Assay XII: acute i.v. effects on mean arterial pressure and renal blood flow in anesthetized dogs; assay type: in vivo, dog
Method: This experiment was run to determine the renal selectivity of conjugate of the invention in dogs. Male mongrel dogs (15-20 kg/n=8; Antech, Inc., Barnhard, Mo.) were anesthetized with sodium pentobarbital (30 mg/kg as i.v. bolus, and 4-6 mg/kg/hr infusion) and catheters were placed in the femoral veins for compound injection or pentobarbital infusion, and the femoral artery for arterial pressure recording. An electromagnetic flow probe (Carolina Medical Electronics, Inc., King, N.C.) was placed around the left renal artery for measurement of renal blood flow. Renal blood flow and arterial pressure were recorded on a Gould chart recorder. After surgery, 20-30 minutes were allowed for variables to stabilize. […] Variables were monitored for the next three hours. Results are shown in Table XXXIV and FIGS. 14 and 15.

[1] = system: DOCA hypertensive micropigs; assay: Assay XIV: chronic in vivo effects in DOCA hypertensive micropigs; parameters: species or system micropig; details: for Mean arterial pressure: 5 mg/kg/hr infusion
Method: This study examines the efficacy of Ex. #859 in deoxycorticosterone acetate ([…]) hypertensive micropigs (Charles River; 6 months of age). Micropigs were made hypertensive by implanting subcutaneously DOCA strips (100 mg/kg) under isoflurane anesthesia. Hypertension stabilizes after one month. Mean arterial pressure was measured using a Gould chart recorder and Statham P23dB transducers. After one month Ex. #859 conjugate was infused for three days at 5 mg/kg/hr).

conscious SHR = assay: Assay XIII: antihypertensive experiments in conscious SHR (renal denervation, bulbocapnine); assay type: in vivo, rat
Method: For antihypertensive experiments, male SHR (11-13 weeks of age; Harlan Sprague-Dawley, Inc.; Indianapolis, Ind.) were habituated for 3-4 days in individual experimental cages, which became their home cages for the duration of the study. Five to seven days before experimentation, SHR were anesthetized with chloral hydrate (400 mg/kg; Sigma Chemical Co., St. Louis, Mo.) and catheters were implanted into a femoral artery and vein. The catheters were led to the back of the neck, exteriorized, and channeled through a tether and swivel system (Alice King Chatham, Los Angeles, Calif.). Surgical renal denervation was performed as above. […] In separate groups of conscious SHR, Ex. #859 (5 mg/kg/hr, n=6) was infused alone, Ex. #859 (5 mg/kg/hr, n=6) was coinfused with bulbocapnine (100 μg/kg/min), or Ex. #859 (10 mg/kg/hr, n=6) was infused 5-7 days after surgical renal denervation. Surgical renal denervation was performed as described above. After a one hour control measure of mean arterial pressure, compounds were infused for four hours and mean arterial pressure was measured continuously.

[2] = system: gamma-glutamyl transpeptidase and acylase I; assay: Assay IV: metabolism of conjugate by purified transpeptidase and acylase; assay type: in vitro ADME
Method: […] The resulting suspension, diluted with buffer, was incubated in the presence of the Ex. #859 conjugate at 37° C. At various times aliquots were removed, deproteinized with an equal volume of cold trichloroacetic acid (25%) and centrifuged. The supernatant was injected onto a C-18 reverse-phase HPLC column and eluted isocratically with a mixture of acetonitrile and water (20:80 v/v) containing trifluoroacetic acid (0.05%). Eluted compounds were monitored by absorbance at 254 nm and compared to standards run under identical conditions. In the assay using pure kidney enzyme homogenate, the Ex. #859 conjugate was also incubated under the same conditions as described except that 5 mg of gamma-glutamyl transpeptidase (Sigma, 23 units/mg) and 10 mg of acylase I (Sigma, 4800 units/mg) were added in place of the homogenate. Analysis by HPLC was performed in a manner identical to that used for the kidney homogenate experiment.

anesthetized dog = assay: Assay XI: intrarenal administration of fusaric acid in anesthetized dogs (MAP, RBF, UNaV); assay type: in vivo
[3] = 7 mg/kg, 1 hour after injection
[4] = 7 mg/kg, 2 hour after injection
[5] = 7 mg/kg, 3 hour after injection
[6] = 20 mg/kg i.v., 1 hour after injection
[7] = 20 mg/kg i.v., 2 hour after injection
[8] = 20 mg/kg i.v., 3 hour after injection
[9] = 60 mg/kg i.v., 1 hour after injection
[10] = 60 mg/kg i.v., 2 hour after injection
[11] = 60 mg/kg i.v., 3 hour after injection
[12] = Dog #1, intrarenal infusion 1.25 mg/kg/min
[13] = Dog #2, intrarenal infusion 0.75 mg/kg/min
[14] = anesthetized dog, bolus intrarenal 0.5, 1.0 and 5.0 mg/kg

CCCCc1ccc(C(=O)NNC(=O)CCC(NC(C)=O)C(=O)O)nc1 [Ex. #859, N-acetyl-L-glutamic acid, 5-[(5-butyl-2-pyridinyl)-carbonyl]hydrazide]
melting point: 191.5 to 192 °C | Mean arterial pressure (Male mongrel dogs; [3]): 116 ± 5 mmHg | Renal Blood Flow (Male mongrel dogs; [3]): 92 ± 5 mL/min | Mean arterial pressure (Male mongrel dogs; [4]): 113 ± 4 mmHg | Renal Blood Flow (Male mongrel dogs; [4]): 111 ± 14 mL/min | Mean arterial pressure (Male mongrel dogs; [5]): 114 ± 4 mmHg | Renal Blood Flow (Male mongrel dogs; [5]): 118 ± 23 mL/min | Mean arterial pressure (Male mongrel dogs; 7 mg/kg, time zero): 114 ± 6 mmHg | Renal Blood Flow (Male mongrel dogs; 7 mg/kg, time zero): 92 ± 5 mL/min | Mean arterial pressure (Male mongrel dogs; [6]): 124 ± 2 mmHg | Renal Blood Flow (Male mongrel dogs; [6]): 107 ± 14 mL/min | Mean arterial pressure (Male mongrel dogs; [7]): 125 ± 3 mmHg | Renal Blood Flow (Male mongrel dogs; [7]): 122 ± 20 mL/min | Mean arterial pressure (Male mongrel dogs; [8]): 125 ± 4 mmHg | Renal Blood Flow (Male mongrel dogs; [8]): 126 ± 24 mL/min | Mean arterial pressure (Male mongrel dogs; 20 mg/kg i.v., time zero): 120 ± 3 mmHg | Renal Blood Flow (Male mongrel dogs; 20 mg/kg i.v., time zero): 88 ± 11 mL/min | Mean arterial pressure (Male mongrel dogs; [9]): 124 ± 1 mmHg | Renal Blood Flow (Male mongrel dogs; [9]): 145 ± 21 mL/min | Mean arterial pressure (Male mongrel dogs; [10]): 126 ± 3 mmHg | Renal Blood Flow (Male mongrel dogs; [10]): 168 ± 28 mL/min | Mean arterial pressure (Male mongrel dogs; [11]): 120 ± 4 mmHg | Renal Blood Flow (Male mongrel dogs; [11]): 176 ± 32 mL/min | Mean arterial pressure (Male mongrel dogs; 60 mg/kg i.v., time zero): 123 ± 3 mmHg | Renal Blood Flow (Male mongrel dogs; 60 mg/kg i.v., time zero): 131 ± 21 mL/min | Mean arterial pressure ([1]; Day 1): 151 ± 4 | Mean arterial pressure ([1]; Day 2): 132 ± 4 | Mean arterial pressure ([1]; Day 3): 119 ± 3 | effect on mean arterial pressure ([1]; conscious DOCA hypertensive micropigs, infusion 5 mg/kg/hr for three days): normalized mean arterial pressure | Mean arterial pressure (conscious SHR; BULBO: 5 mg/kg/hr coinfused with bulbocapnine 100 μg/kg/min, 0 hours): 168 ± 8 | Mean arterial pressure (conscious SHR; BULBO: 5 mg/kg/hr coinfused with bulbocapnine 100 μg/kg/min, 1 hour): 158 ± 6 | Mean arterial pressure (conscious SHR; BULBO: 5 mg/kg/hr coinfused with bulbocapnine 100 μg/kg/min, 2 hours): 148 ± 5 | Mean arterial pressure (conscious SHR; BULBO: 5 mg/kg/hr coinfused with bulbocapnine 100 μg/kg/min, 3 hours): 140 ± 7 | Mean arterial pressure (conscious SHR; BULBO: 5 mg/kg/hr coinfused with bulbocapnine 100 μg/kg/min, 4 hours): 140 ± 5 | Mean arterial pressure (conscious SHR; DNX: 10 mg/kg/hr after surgical renal denervation, 0 hours): 157 ± 3 | Mean arterial pressure (conscious SHR; DNX: 10 mg/kg/hr after surgical renal denervation, 1 hour): 155 ± 4 | Mean arterial pressure (conscious SHR; DNX: 10 mg/kg/hr after surgical renal denervation, 2 hours): 53 ± 4 | Mean arterial pressure (conscious SHR; DNX: 10 mg/kg/hr after surgical renal denervation, 3 hours): 150 ± 4 | Mean arterial pressure (conscious SHR; DNX: 10 mg/kg/hr after surgical renal denervation, 4 hours): 147 ± 4 | effect on mean arterial pressure over a four hour period (conscious SHR; conscious SHR, 5 mg/kg/hr coinfused with bulbocapnine (100 μg/kg/min)): lowered mean arterial pressure similar to Ex. #859 alone | antihypertensive response (conscious SHR; conscious SHR, 10 mg/kg/hr, 5-7 days after surgical renal denervation): prevented the antihypertensive response | effect on mean arterial pressure over a four hour period (conscious SHR; conscious SHR, continuous infusion 5 mg/kg/hr alone): antihypertensive | Mean arterial pressure (conscious SHR; infused alone 5 mg/kg/hr, 0 hours): 177 ± 6 | Mean arterial pressure (conscious SHR; infused alone 5 mg/kg/hr, 1 hour): 172 ± 6 | Mean arterial pressure (conscious SHR; infused alone 5 mg/kg/hr, 2 hours): 170 ± 7 | Mean arterial pressure (conscious SHR; infused alone 5 mg/kg/hr, 3 hours): 164 ± 7 | Mean arterial pressure (conscious SHR; infused alone 5 mg/kg/hr, 4 hours): 154 ± 6 | Fusaric Acid formed from conjugate ([2]; 3 h, pH 7.4): 0.00 µg/mL | Fusaric Acid formed from conjugate ([2]; 3 h, pH 8.1): 0.00 µg/mL | Fusaric Acid formed from conjugate ([2]; 24 h, pH 7.4): 2.56 µg/mL | Fusaric Acid formed from conjugate ([2]; 24 h, pH 8.1): 1.12 µg/mL | Fusaric Acid formed from conjugate ([2]; 72 h, pH 7.4): 12.15 µg/mL | Fusaric Acid formed from conjugate ([2]; 72 h, pH 8.1): 4.46 µg/mL | Fusaric Acid formed from conjugate ([2]; 96 h, pH 7.4): 15.44 µg/mL | Fusaric Acid formed from conjugate ([2]; 96 h, pH 8.1): 5.22 µg/mL | Fusaric Acid formed from conjugate ([2]; 120 h, pH 7.4): 18.75 µg/mL | Fusaric Acid formed from conjugate ([2]; 120 h, pH 8.1): 6.55 µg/mL | species present after incubation ([2]; purified gamma-glutamyl transpeptidase and acylase I): only fusaric acid and the unreacted compound being present

CCCCc1ccc(C(=O)O)nc1 [Fusaric Acid, 5-n-butylpicolinic acid]
MAP (anesthetized dog; [12]): 136 mm Hg | UNa V (anesthetized dog; [12]): 82 μEqlmin | Δ RBF (anesthetized dog; [12]): 240 mL/min | MAP (anesthetized dog; [13]): 148 mm Hg | UNa V (anesthetized dog; [13]): 13 μEqlmin | Δ RBF (anesthetized dog; [13]): 315 mL/min | effect on mean arterial pressure (anesthetized dog; [14]): no significant effect | effect on renal blood flow (anesthetized dog; [14]): dose-related increases | effect on urinary sodium excretion (anesthetized dog; [14]): no significant effect | effect on MAP, RBF and UNaV (anesthetized dog; anesthetized dog, bolus intrarenal injection 0.1 mg/kg): no effect on any measure | MAP (anesthetized dog; intrarenal bolus 0.1 mg/kg): 136 mm Hg | UNa V (anesthetized dog; intrarenal bolus 0.1 mg/kg): 21.2 μEq/min | Δ RBF (anesthetized dog; intrarenal bolus 0.1 mg/kg): 0 mL/min | MAP (anesthetized dog; intrarenal bolus 0.5 mg/kg): 136 mm Hg | UNa V (anesthetized dog; intrarenal bolus 0.5 mg/kg): 23.8 μEq/min | Δ RBF (anesthetized dog; intrarenal bolus 0.5 mg/kg): +46 ml/min | MAP (anesthetized dog; intrarenal bolus 1.0 mg/kg): 138 mm Hg | UNa V (anesthetized dog; intrarenal bolus 1.0 mg/kg): 21.1 μEq/min | Δ RBF (anesthetized dog; intrarenal bolus 1.0 mg/kg): +58 ml/min | MAP (anesthetized dog; intrarenal bolus 5.0 mg/kg): 140 mm Hg | UNa V (anesthetized dog; intrarenal bolus 5.0 mg/kg): 34.8 μEq/min | Δ RBF (anesthetized dog; intrarenal bolus 5.0 mg/kg): +132 ml/min
